In brackets after ≈: the same amount, converted by molar mass.
Assays:
Type in all cases: functional
Escherichia coli = assay: Antibacterial activity against Escherichia coli assessed as reduction in microbial growth incubated for 24 hrs by microdilution method
Candida albicans = assay: Antifungal activity against Candida albicans assessed as reduction in fungal growth incubated for 24 hrs by microdilution method
Staphylococcus aureus = assay: Antibacterial activity against Staphylococcus aureus assessed as reduction in microbial growth incubated for 24 hrs by microdilution method

C=C(CO)[C@H]1Cc2c(ccc3c2O[C@@H]2COc4cc(OC)c(OC)cc4[C@]2(O)C3=O)O1 [DABINOL]
MIC (Escherichia coli): > 1000 µM | MIC (Candida albicans): 147 µM (≈ 62.5 µg/mL) | MIC (Staphylococcus aureus): 293 µM

C=C[C@@](C)(CCC=C(C)C)c1cc([C@@H]2COc3cc(O)ccc3C2)c(O)c(O)c1OC
MIC (Escherichia coli): > 1000 µM | MIC (Candida albicans): 73.7 µM (≈ 31.3 µg/mL) | MIC (Staphylococcus aureus): 18.4 µM

COc1ccc([C@@H]2COc3c(ccc(O)c3C/C=C(\C)CCC=C(C)C)C2)c(O)c1O
MIC (Escherichia coli): 294 µM | MIC (Candida albicans): 73.7 µM (≈ 31.3 µg/mL) | MIC (Staphylococcus aureus): 36.7 µM

O=C(/C=C/c1ccc(O)cc1)c1ccc(O)cc1O [ISOLIQUIRITIGENIN]
MIC (Escherichia coli): > 1000 µM | MIC (Candida albicans): > 1000 µM | MIC (Staphylococcus aureus): 488 µM

O=C(CC(O)c1ccc(O)cc1)c1ccc(O)cc1O (configuration not stated)
MIC (Escherichia coli): > 1000 µM | MIC (Candida albicans): 56.9 µM (≈ 15.6 µg/mL) | MIC (Staphylococcus aureus): 14.2 µM

CC(C)=CCC/C(C)=C/Cc1cc([C@H]2Oc3cc(O)ccc3C(=O)[C@@H]2O)cc(O)c1O
MIC (Escherichia coli): 294 µM | MIC (Candida albicans): 73.7 µM (≈ 31.3 µg/mL) | MIC (Staphylococcus aureus): 36.7 µM

C=C(CO)[C@H]1Cc2c(ccc3c(=O)c4c(oc23)COc2cc(OC)c(OC)cc2-4)O1
MIC (Escherichia coli): > 1000 µM | MIC (Candida albicans): > 1000 µM | MIC (Staphylococcus aureus): 612 µM

CC(C)=CCC[C@]1(C)C=Cc2cc([C@H]3Oc4cc(O)ccc4C(=O)[C@@H]3O)cc(O)c2O1
MIC (Escherichia coli): 296 µM | MIC (Candida albicans): 74.1 µM (≈ 31.3 µg/mL) | MIC (Staphylococcus aureus): 9.2 µM

CC(C)=CCC/C(C)=C/Cc1c(O)ccc2c(=O)c(O)c(-c3ccc(O)c(O)c3)oc12
MIC (Escherichia coli): > 1000 µM | MIC (Candida albicans): > 1000 µM | MIC (Staphylococcus aureus): > 1000 µM

COc1ccc(C2COc3c(ccc4c3C=CC(C)(CCC=C(C)C)O4)C2)c(O)c1O (configuration not stated)
MIC (Escherichia coli): 296 µM | MIC (Candida albicans): 36.9 µM (≈ 15.6 µg/mL) | MIC (Staphylococcus aureus): 36.9 µM

CC(=O)O[C@H]1CC[C@]2(C)[C@H]3CC=C4[C@@H]5CC(C)(C)CC[C@]5(C(=O)O)CC[C@@]4(C)[C@]3(C)CC[C@H]2C1(C)C [ACETYL OLEANOLIC ACID]
MIC (Escherichia coli): > 1000 µM | MIC (Candida albicans): 251 µM (≈ 125 µg/mL) | MIC (Staphylococcus aureus): 251 µM

CCCCCCCCN=c1ccn(CCCCCCCCCCn2ccc(=NCCCCCCCC)cc2)cc1 [OCTENIDINE]
MIC (Escherichia coli): 0.5 µM | MIC (Candida albicans): 0.5 µM (≈ 0.275 µg/mL) | MIC (Staphylococcus aureus): 0.5 µM

CC(C)=CCC[C@]1(C)C=Cc2c(ccc3c2O[C@H](c2ccc(O)c(O)c2)[C@@H](O)C3=O)O1
MIC (Escherichia coli): > 1000 µM | MIC (Candida albicans): 74.1 µM (≈ 31.3 µg/mL) | MIC (Staphylococcus aureus): 36.9 µM

CC(C)=CCCC1(C)C=Cc2c(ccc(C(=O)/C=C/c3ccc(O)cc3)c2O)O1 (configuration not stated) [LESPEOL]
MIC (Escherichia coli): 64 µM | MIC (Candida albicans): 40 µM (≈ 15.6 µg/mL) | MIC (Staphylococcus aureus): 40 µM

Reference: ChEMBL document CHEMBL5579894, “Antimicrobial Dihydroflavonols and Isoflavans Isolated from the Root Bark of Dalbergia gloveri” (2024)
